Measured values as given in ChEMBL document CHEMBL1128901, “C-Attached aminoalkylindoles: potent cannabinoid mimetics” (Bioorg Med Chem Lett, 1996).

Legend:
Mus musculus = species: Mus musculus; assay: In vitro inhibition of electrically induced contractions in isolated mouse vas deferens (MVD) preparations.; assay type: functional
Cannabinoid receptor = Cannabinoid receptor (Rattus norvegicus, UniProt Q9QZN9+P20272); assay: Compound was evaluated for the inhibition of [3H]WIN-55212-2 binding in rat cerebellum membranes; assay type: cell membranes, Membrane
[1] = biological target: T1, Cannabinoid receptor (Rattus norvegicus) (UniProt Q9QZN9+P20272); assay: Compound was evaluated for the inhibition of [3H]WIN-55212-2 binding in rat cerebellum membranes at the concentration 3000 nM; assay type: cell membranes; conditions: Membrane
[2] = biological target: T1, Cannabinoid receptor (Rattus norvegicus); assay: Compound was evaluated for the inhibition of [3H]WIN-55212-2 binding in rat cerebellum membranes at the concentration 1000 nM; assay type: cell membranes; conditions: Membrane

T1 sequence (P20272 whole entry, looked up): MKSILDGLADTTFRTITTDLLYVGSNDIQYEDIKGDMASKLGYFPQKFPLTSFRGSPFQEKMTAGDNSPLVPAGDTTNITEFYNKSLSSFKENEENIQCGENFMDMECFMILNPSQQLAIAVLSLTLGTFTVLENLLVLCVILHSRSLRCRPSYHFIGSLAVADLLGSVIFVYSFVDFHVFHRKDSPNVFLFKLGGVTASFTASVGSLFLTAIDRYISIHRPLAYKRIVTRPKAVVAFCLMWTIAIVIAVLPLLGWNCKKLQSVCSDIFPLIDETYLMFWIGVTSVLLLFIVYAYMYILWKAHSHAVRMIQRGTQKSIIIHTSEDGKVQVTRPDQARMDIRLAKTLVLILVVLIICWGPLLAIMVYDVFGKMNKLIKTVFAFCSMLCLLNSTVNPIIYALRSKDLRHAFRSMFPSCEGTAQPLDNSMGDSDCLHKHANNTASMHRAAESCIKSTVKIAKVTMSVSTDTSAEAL
T1 sequence (Q9QZN9 whole entry, looked up): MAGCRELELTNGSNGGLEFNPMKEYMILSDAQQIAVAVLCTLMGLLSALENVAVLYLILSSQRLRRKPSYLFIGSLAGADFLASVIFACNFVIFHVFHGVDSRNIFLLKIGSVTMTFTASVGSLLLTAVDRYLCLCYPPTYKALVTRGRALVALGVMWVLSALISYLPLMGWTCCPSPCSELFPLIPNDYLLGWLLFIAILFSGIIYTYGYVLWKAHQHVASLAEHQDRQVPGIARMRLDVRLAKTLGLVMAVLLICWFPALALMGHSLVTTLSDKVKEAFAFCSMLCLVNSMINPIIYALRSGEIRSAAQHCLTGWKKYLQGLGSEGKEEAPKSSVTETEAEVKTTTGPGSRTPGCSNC

| Compound | IC50 (Mus musculus) [nM] | IC50 (Cannabinoid receptor) [nM] | also measured |
| --- | --- | --- | --- |
| CCN1CCCC1Cn1c(C)c(C(=O)c2ccc(OC)cc2)c2ccccc21 (centres undefined) | > 10000 |  |  |
| CN1CCN(C)C(Cn2cc(C(=O)c3cccc4ccccc34)c3ccccc32)C1 (centres undefined) | 15 | 51 |  |
| COc1ccc(C(=O)c2c(C)n(CC3CN(C)CCO3)c3ccccc23)cc1 (centres undefined) | > 10000 |  |  |
| Cc1c(C(=O)c2cccc3ccccc23)c2ccccc2n1CC1CCCN1C (centres undefined) | 2.4 | 6.5 |  |
| COc1ccc(C(=O)c2cn(CC3CCCCN3C)c3ccccc23)cc1 (centres undefined) | 2.6 | 9.7 |  |
| COc1ccc(C(=O)c2c(C)n(CC3COCCN3C)c3ccccc23)cc1 (centres undefined) | 210 |  | inhibition [1]: 43% |
| O=C(c1cccc2ccccc12)c1cn(CCN2CCOCC2)c2ccccc12 |  | 7.8 |  |
| COc1ccc(C(=O)c2c(C)n(CC3CCCN3)c3ccccc23)cc1 (centres undefined) | 220 |  |  |
| COc1ccc(C(=O)c2c(C)n(CC3CN(C)CCN3C)c3ccccc23)cc1 (centres undefined) | 1430 |  | inhibition [2]: -8% |
| COc1ccc(C(=O)c2cn(CC3CCCN3C)c3ccccc23)cc1 (centres undefined) | 8 |  |  |
| CN1CCCCC1Cn1cc(C(=O)c2cccc3ccccc23)c2ccccc21 (centres undefined) | 0.47 | 1.22 |  |
| COc1ccc(C(=O)c2c(C)n(C[C@@H]3CCCN3C)c3ccccc23)cc1 | 37 | 497 |  |
| COc1ccc(C(=O)c2c(C)n(C3CCCN(C)C3)c3ccccc23)cc1 (centres undefined) |  |  | Inhibition (Mus musculus): 80% |
| COc1ccc(C(=O)c2c(C)n(C3CCN(C)CC3)c3ccccc23)cc1 | > 10000 |  |  |
| COc1ccc(C(=O)c2c(C)n(CC3C[S+]([O-])CCN3C)c3ccccc23)cc1 (centres undefined) | > 10000 |  | inhibition [2]: -10% |
| COc1ccc(C(=O)c2c(C)n(CCC3CCCCN3C)c3ccccc23)cc1 (centres undefined) | > 10000 |  |  |
| O=C(c1cccc2ccccc12)c1cn(CC2CCCCN2)c2ccccc12 (centres undefined) | 3 | 6.6 |  |
| Cc1c(C(=O)c2cccc3ccccc23)c2ccccc2n1CC1CCCCN1C (centres undefined) | 1.2 | 5.4 |  |
| COc1ccc(C(=O)c2c(C)n(CC3CCCN(C)C3)c3ccccc23)cc1 (centres undefined) | > 10000 |  |  |
| COc1ccc(C(=O)c2c(C)n(CC3CSCCN3C)c3ccccc23)cc1 (centres undefined) | 1150 |  | inhibition [2]: 40% |
| COc1ccc(C(=O)c2c(C)n(CC3CCCN3C)c3ccccc23)cc1 (centres undefined) | 63 |  | inhibition [2]: 53% |
| CN1CCOCC1Cn1cc(C(=O)c2cccc3ccccc23)c2ccccc21 (centres undefined) | 0.4 | 3 |  |
| COc1ccc(C(=O)c2c(C)n(C[C@H]3CCCN3C)c3ccccc23)cc1 |  |  | inhibition [2]: 7%; Inhibition (Mus musculus): 80% |
| COc1ccc(C(=O)c2c(C)n(CC3CCCCN3C)c3ccccc23)cc1 (centres undefined) | 134 | 699 |  |
